# From patent US9980931B2, “Use of glycyl glutamine against depression” (priority 2013, dated 2018)
# Like-named read-outs stand apart in the source and are kept apart here. Peptide text beside a SMILES is read from it.
# Experiments:
# use of alcohol = conditions: administered centrally (Resch et al., 2005; Simpson et al., 1998); cited from earlier work
# [1] = administered peripherally; cited from earlier work
# [2] = system: conditioned place preference (nicotine); conditions: Goktalay et al., 2006; cited from earlier work
# [3] = system: thermogenesis caused by alpha-MSH; conditions: Resch and Millington, 1993; cited from earlier work
# [4] = system: serotonin output at the nucleus accumbency section of the brain; assay: Brain micro-dialysis, serotonin output after intracerebroventricular injection; format: in vivo, rats; conditions: 100 nmol single intracerebroventricular dose; 2 hours monitoring; p<0.001; FIGS. 4 and 5
# Description: The source of the antidepressant effects of Gly-Gln, which is mentioned in the figure descriptions above, have been analyzed and shown in FIGS. 4 and 5. In FIGS. 4 and 5; the effect of Gly-Gin on the serotonin output at the nucleus accumbency section of the brain upon intracerebroventricular Gly-Gln injection can be seen. […] An increase in serotonin outputs can be observed in all time intervals throughout 2 hours of monitoring period following the Gly-Gln injection; however, no serotonin output could be observed from the rodents in the control group who had been administered saline injections by the same way. Serotonin, which is structurally a monoamine neurotransmitter, is a hormone, which makes people feel happy, energetic and lively. When, the subject matter hormone serotonin is deficient in people, they feel depressive, tired and boring. […] Furthermore, the word “Saline” indicated in FIGS. 4 and 5 means salty water. It is used for comparing with the tested medication by administering on the control group.
# brainstem of rodents = conditions: applied on the brainstem of rodents iontophoretically (Parish et al., 1983); cited from earlier work
# myocardial damage = conditions: Zhang et al., 2013; cited from earlier work
# [5] = system: conditioned place preference caused by morphine; conditions: Cavun et al., 2005; cited from earlier work
# [6] = system: cardiorespiratory depression; conditions: Unal et al., 1997; cited from earlier work
# GABA levels in the brain [7] = assay: GABA levels in the brain after administration; format: in vivo; conditions: Gly-Gln administration; data from our laboratory
# Source text: This innovation is related with the use of glycyl-glutamine in the treatment and/or prophylaxis of depression disorder and/or anxiety, which meets all above-mentioned requirements, eliminates all disadvantages and provides some advantages. The purpose of the current invention is to use Glycyl-Glutamine (Gly-Gln) in the treatment and/or prophylaxis of depression and/or anxiety via its effects in the brain other than its metabolic products' (glycine and glutamine) separate effects. […] Glutamine exerts antidepressant effects by increasing gamma-aminobutyric acid (GABA) in the brain however Gly-Gln generates antidepressant effects by increasing serotonin levels in the brain. […] Although glutamine administration increases GABA levels in the brain.
# GABA levels in the brain [8] = conditions: glutamine administration; cited from earlier work
compound,measurement,setting,value
"NCC(=O)N[C@@H](CCC(N)=O)C(=O)O [Gly-Gln, glycyl-glutamine] (H-Gly-Gln-OH)",use of alcohol,use of alcohol,decreased
same,crossing of the blood-brain barrier,[1],could not across
same,conditioned place preference and deprivation syndrome (nicotine),[2],prevented
same,thermogenesis caused by alpha-MSH,[3],antagonized
same,serotonin output at the nucleus accumbency section of the brain,[4],extremely increased
same,effect on cell ignition,brainstem of rodents,inhibiting effect
same,effects on myocardial damage after severe burn injury,myocardial damage,beneficial effects
same,addition and tolerance developments (morphine),[5],inhibited
same,conditioned place preference caused by morphine,[5],prevented
same,deprivation symptoms (morphine),[5],decreased
same,cardiorespiratory depression caused by beta-endorphin,[6],eliminated
same,cardiorespiratory depression caused by beta-endorphin and morphine,[6],eliminated
same,GABA levels in the brain,GABA levels in the brain [7],does not alter
NC(=O)CC[C@H](N)C(=O)O [glutamine],GABA levels in the brain,GABA levels in the brain [8],increases
"beta-endorphin (YGGFMTSEKSQTPLVTLFKNAIIKNAYKKGE; Beta-endorphin; UniProt P01189 237-267, looked up) [endogenous peptide from which Gly-Gln is produced, reference compound]",use of alcohol,use of alcohol,increased
NC(=O)CC[C@@H]1NC(=O)CNC1=O [cyclo Gly-Gln],crossing of the blood-brain barrier,[1],could be across
same,cardiorespiratory depression caused by beta-endorphin and morphine,[6],eliminated
